The values below are quoted from earlier work in US20150038447A1, “ORGAN PROTECTION, PRESERVATION AND RECOVERY” (Hibernation Therapeutics, A KF LLC, priority 2007, published 2015).

The conditions of data set [1]: in vivo.
The conditions of data set [2]: 400 mg daily tablets.
The conditions of data set [3]: given orally and/or intravenous at 10, 25, 50, and 100 mg/kg body weight.
Data set [4] concerns the target T1, adenosine deaminase (Bos taurus, UniProt P56658).
T1 construct: from tissue; host or cells: calf intestinal mucosa
Conditions: calf intestinal mucosa; read-out: Ki (competitive inhibitor of adenosine deaminase).

For data set [5], the target named is T2, NK(2) receptor (Homo sapiens, UniProt P21452).
T2 sequence (P21452 1-398): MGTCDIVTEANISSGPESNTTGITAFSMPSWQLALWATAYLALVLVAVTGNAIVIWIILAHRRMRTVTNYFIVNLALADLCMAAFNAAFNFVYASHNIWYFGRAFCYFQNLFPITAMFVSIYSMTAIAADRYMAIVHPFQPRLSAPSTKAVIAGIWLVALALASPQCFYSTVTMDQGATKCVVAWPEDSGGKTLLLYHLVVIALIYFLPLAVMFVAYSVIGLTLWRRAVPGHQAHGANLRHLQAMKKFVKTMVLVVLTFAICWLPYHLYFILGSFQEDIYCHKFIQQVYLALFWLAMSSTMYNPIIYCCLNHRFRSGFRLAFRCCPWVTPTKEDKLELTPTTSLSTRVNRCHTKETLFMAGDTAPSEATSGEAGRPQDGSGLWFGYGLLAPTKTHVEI
Conditions: NK(1) versus NK(2).

In data set [6] the target is human NK(1) receptor (Homo sapiens, UniProt P25103).
In data set [7] the target is T3, NK(3) receptor (Homo sapiens, UniProt P29371).
T3 sequence (P29371 1-465): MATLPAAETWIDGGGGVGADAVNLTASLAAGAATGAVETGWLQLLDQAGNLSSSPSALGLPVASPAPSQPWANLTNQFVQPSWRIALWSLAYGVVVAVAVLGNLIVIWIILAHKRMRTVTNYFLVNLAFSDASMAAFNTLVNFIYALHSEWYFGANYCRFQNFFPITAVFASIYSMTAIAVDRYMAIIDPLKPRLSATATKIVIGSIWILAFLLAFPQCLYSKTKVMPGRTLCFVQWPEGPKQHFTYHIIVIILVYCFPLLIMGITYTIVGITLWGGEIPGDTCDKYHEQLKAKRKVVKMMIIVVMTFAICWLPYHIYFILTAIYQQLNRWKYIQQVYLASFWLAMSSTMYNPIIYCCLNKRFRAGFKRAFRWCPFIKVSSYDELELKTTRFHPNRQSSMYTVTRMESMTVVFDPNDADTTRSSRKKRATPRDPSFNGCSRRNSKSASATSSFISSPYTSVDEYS
The following applies: NK(1) versus NK(3).

Data set [8] deals with anaesthetised rats. The following applies: previous studies (Canyon and Dobson, 2004).

T1 sequence (P56658 whole entry): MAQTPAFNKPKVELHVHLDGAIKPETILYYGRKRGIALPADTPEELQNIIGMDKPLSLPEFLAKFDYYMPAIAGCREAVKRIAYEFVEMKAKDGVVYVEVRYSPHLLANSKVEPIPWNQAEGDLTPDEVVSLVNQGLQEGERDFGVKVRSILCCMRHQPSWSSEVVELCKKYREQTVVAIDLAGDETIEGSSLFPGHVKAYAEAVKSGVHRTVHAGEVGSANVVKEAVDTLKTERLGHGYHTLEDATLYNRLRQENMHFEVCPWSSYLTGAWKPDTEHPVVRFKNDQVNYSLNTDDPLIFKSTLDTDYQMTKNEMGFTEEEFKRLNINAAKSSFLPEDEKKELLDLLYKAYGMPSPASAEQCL
Sequence of human NK(1) receptor (P25103 whole entry): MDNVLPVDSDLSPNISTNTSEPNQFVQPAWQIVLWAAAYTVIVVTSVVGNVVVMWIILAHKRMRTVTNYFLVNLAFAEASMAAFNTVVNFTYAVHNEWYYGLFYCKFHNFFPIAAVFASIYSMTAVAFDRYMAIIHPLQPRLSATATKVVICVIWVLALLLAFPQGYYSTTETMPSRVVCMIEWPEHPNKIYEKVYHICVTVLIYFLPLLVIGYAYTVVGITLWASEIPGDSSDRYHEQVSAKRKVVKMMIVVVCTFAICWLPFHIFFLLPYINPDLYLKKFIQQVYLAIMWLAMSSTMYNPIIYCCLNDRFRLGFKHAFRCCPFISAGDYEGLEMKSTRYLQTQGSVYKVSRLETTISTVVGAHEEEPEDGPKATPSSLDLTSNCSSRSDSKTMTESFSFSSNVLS

With `CSCC[C@@H]1NC(=O)[C@H](CC(C)C)NC(=O)[C@H](CCCNC(=N)N)NC(=O)[C@H](CO)NC(=O)[C@@H]2CSSC[C@@H]3NC(=O)[C@H](CO)NC(=O)CNC(=O)[C@H]([C@@H](C)O)NC(=O)[C@H](CSSC[C@H](N)C(=O)N[C@@H](CCCCN)C(=O)NCC(=O)N[C@@H](CCCCN)C(=O)NCC(=O)N[C@@H](C)C(=O)N[C@@H](CCCCN)C(=O)N2)NC(=O)[C@H](CSSC[C@@H](C(N)=O)NC(=O)[C@H](CCCCN)NC(=O)CNC(=O)[C@H](CO)NC(=O)[C@H](CCCNC(=N)N)NC3=O)NC(=O)[C@H](CC(=O)O)NC(=O)[C@H](Cc2ccc(O)cc2)NC1=O` [Omega conotoxin MVIIA], the “potency as an analgesic relative to morphine” value in data set [1] is given as 100-1000 fold.

For the molecule `OCCN(CCO)c1nc(N2CCCCC2)c2nc(N(CCO)CCO)nc(N3CCCCC3)c2n1` [Dipyridamole], in data set [2], the plasma level entry is reported as “about 0.4 μg/ml” and the “plasma level (concentration)” value was roughly 800 nM.

For orientation: Ki means a dissociation constant, usually derived from enzyme kinetics or from competition with a known ligand. Consider `NC(=O)c1ncn([C@@H]2O[C@H](CO)[C@@H](O)[C@H]2O)c1N` [Acadesine, 5-amino-4-imidazole carboxamide ribonucleoside], for which the safety in humans entry in data set [3] was “safe”. In data set [4], the Ki was 362 µM.

As for `Cc1cccc(C)c1NC(=O)C[C@H]1CCN(C(=O)c2cc(C(F)(F)F)cc(C(F)(F)F)c2)[C@@H](Cc2ccccc2)C1.O=C(O)C[C@H](O)C(=O)O` (relative stereo) [R116301, (2R-trans)-4-[1-[3,5-bis(trifluoromethyl)benzoyl]-2-(phenylmethyl)-4-piperidinyl]-N-(2,6-dimethylphenyl)-1-acetamide (S)-Hydroxybutanedioate], the “selectivity toward NK(2) receptor” value in data set [5] is “over 200 fold”. For the same molecule, in data set [6], the Ki is 0.00045 µM. Moreover, the “selectivity toward NK(3) receptor” value in [7] is “over 200 fold”.

With `Nc1ncnc2c1ncn2[C@@H]1O[C@H](CO)[C@@H](O)[C@H]1O` [adenosine], the “half life in the blood” value is “about 10 seconds”. Besides, in data set [8], the “animals that die during 30 min ischaemia from VF” value is recorded as “about 50%”.
